Columns and labels:
Meloidogyne incognita = assay: Critical concentration test (soil treatment, lettuce root galls); type: in vivo; conditions: active compound concentration of 20 ppm in soil, greenhouse 25° C., evaluated after three weeks
Procedure: Critical Concentration Test [table] To produce a suitable preparation of active compound, 1 part by weight of active compound is mixed with the stated amount of solvent, the stated amount of emulsifier is added and the concentrate is diluted to the desired concentration. The preparation of active compound is intimately mixed with the soil which is contaminated with the test nematodes. The concentration of the active compound in the preparation is here virtually unimportant, only the amount of active compound per volume unit of soil, which is stated in ppm (=mg/l), is decisive. The treated soil is filled into pots, lettuce is sown in and the pots are kept at a greenhouse temperature of 25° C. After three weeks, the roots of the lettuces are examined for infestation by nematodes (root galls), and the efficacy of the active compound in % is determined. The efficacy is 100% when infestation is avoided completely and 0% when the infestation level is just as high as in the control plants in untreated, but equally infested, soil.

melting point: 125 °C
Compound: CC(=NC#N)NC(C)c1ccc(Cl)cc1 (centres unmarked) [Preparation Example 1, [R]-N-cyano-N′-(4-chlorophenyl-eth-1-yl)-ethaneimidamide]
kill (efficacy of the active compound in %) (Meloidogyne incognita): 100%

— patent US6638979B1, “Imidamide derivatives” (Bayer Aktiengesellschaft, priority 1998, dated 2003)
